Structures can show the parent of a compound that is named as a salt.
Assays:
[1] = test system: AAPH-induced oxidation of linoleate; test: AAPH-induced peroxidation of linoleate (conjugated dienes at 234 nm); type: biochemical; settings: for A234 (amount of conjugated dienes formed by the peroxidative process): absorption at 234 nm after 150 min at 37° C., aminopyrazines at 10 μM, AAPH alone 0.37; for antioxidative activity (inhibition of lipid peroxidation), in words: comment on Table 2, 10 μM; for antioxidative activity (inhibition of AAPH-induced peroxidation of linoleic acid), in words: FIG. 3
Protocol: In a preferred embodiment the synthetic derivatives of 2-amino-1,4-pyrazine of family I, characterized by two aryl substituents in positions C-3 and C-5, were endowed with unexpectedly high antioxidative properties (FIG. 1). […] AAPH 4 mM was added to a micellar solution of linoleate (0.16 mM). The rate of conjugated dienes formation was measured at 234 nm at 37° C. All aminopyrazines were tested at 5 μM.
The ability of the synthesized compounds to inhibit lipid peroxidation has been tested on AAPH-induced oxidation of linoleate. Briefly, a micellar solution of linoleate (0.16 mM) is incubated at 37° C. with 4 mM free radical generator AAPH (2,2′-azobis-2-methyl-propionamidine hydrochloride) in a microplate-based spectrophotometer. The production of conjugated dienes by the peroxidation of linoleate is monitored continuously at 234 nm. Antioxidants can both delay the onset of the oxidation process and reduce the rate of the oxidation.
The amount of conjugated dienes formed by the peroxidative process evaluated by the absorption at 234 nm after 150 min at 37° C. All aminopyrazines were tested at 10 μM.

[2] = test system: Human keratinocytes cells (HaCaT); test: Protective effect against UVB in HaCaT cells (LDH release); type: cell-based; settings: for Percentage Mortality (LDH assay), Unirradiated cells: 24 hours, no UVB; for mortality at 50 µM: Homo sapiens, light or radiation study, 30 min pre-incubation, UVB 200 mJ/cm^2, 24 hours, control 14.1, read-out: Percentage Mortality (LDH assay), UVB-irradiated cells
Protocol: Human keratinocytes cells (HaCaT) were cultured in 96-well microplates. Tested compounds were solubilized in phosphate buffered saline (PBS) and applied to cells 30 minutes prior to the irradiation with UVB in a BIOSUN irradiation system (Vilbert-Lourmat). PBS was then replaced by the culture medium containing the tested compounds, and incubated for a further 24 hours before measuring the percentage of lactate dehydrogenase (LDH) released into the cell culture supernatant.
Keratinocytes were pre-incubated with aminopyrazines (50 μM) for 30 min and then irradiated with UVB at 200 mJ/cm^2 in the absence of the antioxidant. The cells were then incubated for a further 24 hours in the culture medium containing the tested compounds before measuring the percentage of lactate dehydrogenase (LDH) released into the cell culture supernatant.
Keratinocytes were pre-incubated with increasing concentrations of CD43 for 30 min and then irradiated with UVB at 200 mJ/cm^2. The cells were incubated for a further 24 hours before measuring the percentage of lactate dehydrogenase (LDH) released into the cell culture supernatant.

[3] = FIG. 2, increasing concentrations of CD43

Cc1nc2c(-c3ccc(O)cc3)[nH]c(-c3ccccc3)cn-2c1=O (as salt: hydrochloride) (hydrate or solvate) [CD52, 2-Methyl-6-phenyl-8-(p-hydroxyphenyl)-3,7-dihydroimidazolo[1,2-a]pyrazin-3-one]
melting point: 99.5 °C (dec.)

CCOC(=O)C(C)Nc1nc(NC(C)C(=O)OCC)c(-c2ccc(O)cc2)nc1-c1ccc(O)cc1 (centres unmarked) (as salt: hydrochloride) [JFC38, 2,6-Bis(1′-ethoxycarbonyl-ethylamino)-3,5-bis(p-hydroxyphenyl)-1,4-pyrazine]
melting point: 175 °C (dec.)

COc1ccc(-c2cnc(N)c(-c3ccc(OC)cc3)n2)cc1 [CD29, 2-Amino-3,5-bis(p-methoxyphenyl)-1,4-pyrazine, reference compound]
A234 (amount of conjugated dienes formed by the peroxidative process) [1]: 0.37 | antioxidative activity (inhibition of lipid peroxidation), in words [1]: reduced activities

Nc1ncc(-c2ccc(O)cc2)nc1-c1ccc(O)cc1 [CD31, 2-amino-3,5-bis(p-hydroxyphenyl)-1,4-pyrazine]
A234 (amount of conjugated dienes formed by the peroxidative process) [1]: 0.08 | antioxidative activity (inhibition of lipid peroxidation), in words [1]: very active | Percentage Mortality (LDH assay), Unirradiated cells ([2]; 50 μM): 0% | mortality at 50 µM ([2]; 50 μM): 0%

Cc1nc2c(-c3ccc(O)cc3)[nH]c(-c3ccc(O)cc3)cn-2c1=O [CD43, 2-Methyl-6,8-bis(p-hydroxyphenyl)-3,7-dihydroimidazolo[1,2-a]pyrazin-3-one]
onset of peroxidation, in words [1, 3]: delay of the onset of peroxidation | rate of oxidation after onset, in words [1, 3]: lower rate of oxidation after onset | protection against UVB-induced mortality, in words ([2]; FIG. 4, increasing concentrations of CD43, UVB 200 mJ/cm^2): very efficiently protect cells against UVB-induced mortality | toxicity for cells, in words ([2]; controls): no toxicity for cells

Nc1ncc(-c2ccccc2)nc1-c1ccc(O)cc1 [CD46, 2-amino-3-(p-hydroxyphenyl)-5-phenyl-1,4-pyrazine]
A234 (amount of conjugated dienes formed by the peroxidative process) [1]: 0.19 | Percentage Mortality (LDH assay), Unirradiated cells ([2]; 50 μM): 0% | protection against UVB-induced cytotoxicity, in words ([2]; 50 μM, UVB 200 mJ/cm^2): very efficiently reduced the cytotoxicity of UVB | mortality at 50 µM ([2]; 50 μM): 0%

Nc1ncc(-c2ccc(O)cc2)nc1-c1ccccc1 [CD51, 2-amino-3-phenyl-5-(p-hydroxyphenyl)-1,4-pyrazine]
rate of the oxidation, in words ([1]; FIG. 6, 5 μM): only reduces the rate of the oxidation | A234 (amount of conjugated dienes formed by the peroxidative process) [1]: 0.12 | antioxidative activity (inhibition of lipid peroxidation), in words [1]: more activity | Percentage Mortality (LDH assay), Unirradiated cells ([2]; 50 μM): 0% | mortality at 50 µM ([2]; 50 μM): 7.3%

Cc1nc2c(-c3ccccc3)[nH]c(-c3ccc(O)cc3)cn-2c1=O [CD53, 2-Methyl-6-(p-hydroxyphenyl)-8-phenyl-3,7-dihydroimidazolo[1,2-a]pyrazin-3-one]
onset of the oxidation process, in words ([1]; FIG. 6, 5 μM): firstly delays the onset of the oxidation process

Nc1nc(N)c(-c2ccc(O)cc2)nc1-c1ccc(O)cc1 [JFC28, 2,6-diamino-3,5-bis(p-hydroxyphenyl)-1,4-pyrazine]
antioxidative activity (inhibition of AAPH-induced peroxidation of linoleic acid), in words ([1]; 5 μM): does not improve the activity

CCOC(=O)C(C)Nc1nc(NC(C)C(=O)OCC)c(-c2ccc(O)cc2)nc1-c1ccc(O)cc1 (centres unmarked) [JFC38, 2,6-Bis(1′-ethoxycarbonyl-ethylamino)-3,5-bis(p-hydroxyphenyl)-1,4-pyrazine]
antioxidative activity (inhibition of AAPH-induced peroxidation of linoleic acid), in words ([1]; 5 μM): very active

Nc1nc(N)c(-c2ccccc2)nc1-c1ccccc1 [JFC 33]
antioxidative activity (inhibition of AAPH-induced peroxidation of linoleic acid), in words ([1]; 5 μM): active

CCOC(=O)C(C)Nc1nc(NC(C)C(=O)OCC)c(-c2ccccc2)nc1-c1ccccc1 (centres unmarked) [JFC 39]
antioxidative activity (inhibition of AAPH-induced peroxidation of linoleic acid), in words ([1]; 5 μM): active

— patent US20040034225A1, “Aryl-substituted n, n-heterocyclic compounds, method for their preparationand their use in therapeutics and diagnostics” (priority 2000, published 2004)
